From ChEMBL document CHEMBL5316354, “From Natural Sources to Synthetic Derivatives: The Allyl Motif as a Powerful Tool for Fragment-Based Design in Cancer Treatment” (J Med Chem, 2023)

Experiments:
[1] = system: SW480; test: Antitumor activity against human SW480 cells assessed as inhibition of cell growth incubated for 24 to 48 hrs; format: functional, cell-based
[2] = system: MCF7; test: Antitumor activity against human MCF7 cells assessed as cell growth inhibition; format: functional, cell-based
[3] = system: NCI-H226; test: Antitumor activity against human NCI-H226 cells assessed as cell growth inhibition; format: functional, cell-based
[4] = system: HL-60; test: Antitumor activity against human HL-60 cells assessed as cell growth inhibition; format: functional, cell-based
[5] = system: Rattus norvegicus; test: Immunomodulatory activity in testosterone propionate induced benign prostatic hyperplasia Wistar rat model assessed as reduction in DHT level at 5 mg/kg, po relative to control; format: functional
[6] = system: Rattus norvegicus; test: Immunomodulatory activity in testosterone propionate induced benign prostatic hyperplasia Wistar rat model assessed as reduction in prostate weight at 5 mg/kg, po relative to control; format: functional
[7] = system: Rattus norvegicus; test: Immunomodulatory activity in testosterone propionate induced benign prostatic hyperplasia Wistar rat model assessed as reduction in serum testosterone level at 5 mg/kg, po relative to control; format: functional
[8] = system: Rattus norvegicus; test: Immunomodulatory activity in testosterone propionate induced benign prostatic hyperplasia Wistar rat model assessed as reduction in prostate weight at 50 mg/kg, po relative to control; format: functional
[9] = system: Rattus norvegicus; test: Immunomodulatory activity in testosterone propionate induced benign prostatic hyperplasia Wistar rat model assessed as reduction in DHT level at 50 mg/kg, po relative to control; format: functional
[10] = system: Rattus norvegicus; test: Immunomodulatory activity in testosterone propionate induced benign prostatic hyperplasia Wistar rat model assessed as reduction in serum testosterone level at 50 mg/kg, po relative to control; format: functional
[11] = system: MCF7; test: Antitumor activity against human MCF7 expressing HER-2 cells assessed as cell growth inhibition; format: functional, cell-based
[12] = system: BGC-823; test: Antitumor activity against human BGC-823 cells xenografted in BALB/c nude mouse assessed as tumor growth inhibition at 40 mg/kg, ip administered for 32 days relative to control; format: functional; conditions: BGC-823, 768 h, time 32 day
[13] = system: BGC-823; test: Antitumor activity against human BGC-823 cells xenografted in BALB/c nude mouse assessed as tumor growth inhibition at 20 mg/kg, ip administered for 32 days relative to control; format: functional; conditions: BGC-823, 768 h, time 32 day
[14] = system: BGC-823; test: Antitumor activity against human BGC-823 cells xenografted in BALB/c nude mouse assessed as tumor growth inhibition at 30 mg/kg, ip administered for 32 days relative to control; format: functional; conditions: BGC-823, 768 h, time 32 day
[15] = system: SGC-7901; test: Antitumor activity against human SGC-7901 cells assessed as cell growth inhibition; format: functional, cell-based
[16] = system: BGC-823; test: Antitumor activity against human BGC-823 cells assessed as cell growth inhibition; format: functional, cell-based
[17] = system: PC-3; test: Antitumor activity against human PC-3 cells assessed as cell growth inhibition; format: functional, cell-based
[18] = system: SW-620; test: Antitumor activity against human SW620 cells assessed as cell growth inhibition; format: functional, cell-based
[19] = system: NCI-H23; test: Antitumor activity against human NCI-H23 cells assessed as cell growth inhibition; format: functional, cell-based
[20] = system: SK-BR-3; test: Antitumor activity against human SK-BR-3 cells assessed as cell growth inhibition; format: functional, cell-based
[21] = system: MCF7; test: Antitumor activity against human MCF7 cells assessed as decrease in cell viability; format: functional, cell-based
[22] = system: DU-145; test: Antitumor activity against human DU-145 cells assessed as cell growth inhibition; format: functional, cell-based
[23] = system: HeLa; test: Antitumor activity against human HeLa cells assessed as cell growth inhibition; format: functional, cell-based
[24] = system: MCF7; test: Antitumor activity against human MCF7 cells assessed as cell growth inhibition incubated for 48 hrs; format: functional, cell-based; conditions: MCF7, 48 h
[25] = system: MCF7; test: Antitumor activity against human MCF7 cells assessed as inhibition of cell proliferation; format: functional, cell-based
[26] = system: MCF7; test: Antitumor activity against human MCF7 cells assessed as inhibition of cell proliferation in the presence of 1mM of eugenol; format: functional, cell-based
[27] = system: MDA-MB-231; test: Antitumor activity against human MDA-MB-231 cells assessed as cell viability at 0.5 uM relative to control; format: functional; conditions: read-out: Activity
[28] = system: HepG2; test: Antitumor activity against human HepG2 cells assessed as reduction in cell growth; format: functional, cell-based
[29] = system: HepG2; test: Cytotoxicity against human HepG2 cells; format: functional
[30] = system: Ca9-22; test: Antitumor activity against human Ca9-22 cells assessed as cellular proliferation at 3 uM; format: functional
[31] = system: Ca9-22; test: Antitumor activity against human Ca9-22 cells assessed as cellular proliferation at 30 uM; format: functional
[32] = system: MDA-MB-231; test: Antitumor activity against human MDA-MB-231 cells assessed as cell viability at 50 uM relative to control; format: functional; conditions: read-out: Activity
[33] = system: MG-63; test: Antiproliferative activity against human MG-63 cells assessed as growth inhibition by MTT assay; format: functional
[34] = system: MDA-MB-231; test: Antitumor activity against human MDA-MB-231 cells assessed as inhibition of cell proliferation at 40 uM relative to control; format: functional
[35] = system: SK-BR-3; test: Antitumor activity against human SK-BR-3 cells assessed as inhibition of cell proliferation at 40 uM relative to control; format: functional
[36] = system: SK-BR-3; test: Antitumor activity against human SK-BR-3 cells assessed as inhibition of cell proliferation at 60 uM relative to control; format: functional
[37] = system: MDA-MB-231; test: Antitumor activity against human MDA-MB-231 cells assessed as inhibition of cell proliferation at 60 uM relative to control; format: functional
[38] = Antitumor activity against human OC2 cells assessed as increase in cell proliferation at 10 uM relative to control; format: functional
[39] = Antitumor activity against human Osteosarcoma cells assessed as increase in intracellular calcium concentration; format: functional, cell-based; conditions: Osteosarcoma cell

C=CCSC[C@H](NC(=O)C(C)c1ccc2cc(OC)ccc2c1)C(=O)OCC (stereo partly drawn)
IC50 [1]: 31 µM

C=CCc1cccc(/C=N/NC(=O)CN2CCN(Cc3ccccc3)CC2)c1O [PAC-1]
IC50 [2]: > 75 µM | IC50 [3]: 0.35 µM | IC50 [4]: 0.92 µM

CC(C)(C)NC(=O)[C@H]1CC[C@H]2[C@@H]3CC[C@H]4NC(=O)C=C[C@]4(C)[C@H]3CC[C@]12C [FINASTERIDE]
inhibition in vivo at 5 mg/kg [5]: 52% | inhibition in vivo at 5 mg/kg [6]: 53% | inhibition in vivo at 5 mg/kg [7]: 55%

C=CCSCC=C [DIALLYL SULFIDE]
inhibition in vivo at 50 mg/kg [8]: 60% | inhibition in vivo at 50 mg/kg [9]: 75% | inhibition in vivo at 50 mg/kg [10]: 68%

C=CCNC(=S)NC(=O)c1ccccc1
IC50 [2]: 1.5 µM | IC50 [11]: 0.6 µM

C=CCSSSCC=C [ALLITRIDIN]
inhibition in vivo at 40 mg/kg [12]: 57% | inhibition in vivo at 20 mg/kg [13]: 38% | inhibition in vivo at 30 mg/kg [14]: 50%

C=CCc1cc(/C=C2\CC/C(=C\c3ccc(O)c(CC=C)c3)C2=O)ccc1O
IC50 [15]: 6.9 µM | IC50 [16]: 7.1 µM

C=CCc1cccc(/C=N/NC(=O)Cn2cnc3ccc([N+](=O)[O-])cc3c2=O)c1O
IC50 [17]: 0.07 µM | IC50 [18]: 0.07 µM | IC50 [19]: 0.03 µM

COC1=C2C[C@@H](C)C[C@H](OC)[C@H](O)[C@@H](C)/C=C(\C)[C@H](OC(N)=O)[C@@H](OC)/C=C\C=C(/C)C(=O)NC(=CC1=O)C2=O [GELDANAMYCIN]
IC50 [2]: 0.011 µM | IC50 [20]: 0.004 µM

C=CCSCC(N)C(=O)OOc1ccc(CNC(=O)CCCCCCCC)cc1OC (stereo not drawn)
IC50 [21]: 66 µM

O=c1c2ccccc2[se]n1C1CCCCC1
IC50 [2]: 7.3 µM | IC50 [22]: 5.7 µM

C=CCNC1=C2C[C@@H](C)C[C@H](OC)[C@H](O)[C@@H](C)/C=C(\C)[C@H](OC(N)=O)[C@@H](OC)/C=C\C=C(/C)C(=O)NC(=CC1=O)C2=O [TANESPIMYCIN]
IC50 [2]: 0.005 µM | IC50 [20]: 0.004 µM

CCC[C@@H](Cc1c[nH]c2ccccc12)NS(=O)(=O)c1c(C(C)C)cc(C(C)C)cc1C(C)C
IC50 [23]: 30.8 µM

C/C=C/c1ccc(O)c(OC)c1
IC50 [24]: 11.4 µM

COc1cccc2c1C(=O)c1c(O)c3c(c(O)c1C2=O)C[C@@](O)(C(=O)CO)C[C@@H]3O[C@H]1C[C@H](N)[C@H](O)[C@H](C)O1 [DOXORUBICIN]
IC50 [15]: 36.9 µM | IC50 [25]: 0.5 µM | IC50 [26]: 0.088 µM | viability at 0.5 µM [27]: 40% | IC50 [16]: 38.2 µM

C=CCSC[C@H](NC(=O)Cc1ccccc1Nc1c(Cl)cccc1Cl)C(=O)OCC
IC50 [1]: 31 µM

C=C1[C@H](CO)[C@@H](O)C[C@@H]1n1cnc2c(=O)[nH]c(N)nc21 [ENTECAVIR ANHYDROUS]
EC50 [28]: 0.00375 µM | CC50 [29]: 30 µM

C=CCOc1cccc2c1C(=O)C=C(C)C2=O
IC50 [17]: 32.2 µM

C/C=C/c1ccc(OC)cc1 [ANETHOLE]
Activity [30]: 42.7% | Activity [31]: 5.2% | viability at 50 µM [32]: 60% | GI50 [33]: 60.2 µM

C=CCSC[C@H](NC(=O)c1ccccc1O)C(=O)OCC
IC50 [1]: 31 µM

CCCCCCCCC(=O)NCc1ccc(O)c(OC)c1 [NONIVAMIDE]
IC50 [21]: 2240 µM

C=CCc1cc(/C=C2\CN(Cc3ccccc3)C/C(=C\c3ccc(O)c(CC=C)c3)C2=O)ccc1O
IC50 [15]: 6 µM | IC50 [16]: 6.9 µM

Cn1[se]c2ccccc2c1=O
IC50 [2]: 32.7 µM | IC50 [22]: 30.2 µM

C=CCc1ccc(O)c(OC)c1 [EUGENOL]
inhibition at 40 µM [34]: > 90% | inhibition at 40 µM [35]: > 90% | IC50 [24]: > 1500 µM | inhibition at 60 µM [36]: > 90% | inhibition at 60 µM [37]: > 90%

CC(C)CCn1[se]c2ccccc2c1=O
IC50 [2]: 29 µM

C=CCc1ccc2c(c1)OCO2 [SAFROLE]
Activity [38]: 50% | EC50 [39]: 450 µM

CCCCn1[se]c2ccccc2c1=O
IC50 [2]: 13.8 µM | IC50 [22]: 28 µM
